# Measurements published in patent publication US9303261B2, “Composition for controlling chromogenesis including microRNA” (Amorepacific Corporation, priority 2011, dated 2016).
# System: tyrosinase mRNA
# Experiment: Tyrosinase mRNA expression by real-time PCR after transfection of WM115 cells with miR-125b inhibitor
# Type: cell-based, human
# Details: melanoma cell line WM115, 75 uM transfected using liposome, about 60 hours, compared to Comparative Examples 1 and 2
# Experimental: The present inventors used an inhibitor of […] to perform a loss-of-function study of miR-125b, in which the inhibitor of miR-125b is an oligonucleotide having a sequence complementary to that of miR-125b and can bind to miR-125b in cells to inhibit the function of the miR-125b.
# 75 uM of an inhibitor of miR-125b (model: IH-300595-05-0005, miRIDIAN Hairpin Inhibitor, Human hsa-miR-125b MIMAT0000423/MI0000446 (hsa-miR-125b), Dharmacon, Inc.; Example 2) was transfected into the melanoma cell line WM115 using liposome and allowed to move into the cells. […] After transfection, the cells were cultured in a 5% CO2 incubator at 37° C. for about 60 hours, and then RNA was isolated from the cells using 1 ml of Trizol reagent. Specifically, the cells were lysed using Trizol, and then centrifuged to remove the supernatant, and 0.35 ml of isopropanol was added to the residue to form nucleic acid pellets, which were then washed with 70% EtOH and dissolved in water to isolate RNA. About 1 ug of the RNA was made into cDNA using oligo dT and reverse transcriptase, and the cDNA was subjected to real-time PCR according to the TaqMan method (Applied Biosystems) using a primer (assay ID: Hs01099965_m1) specific to tyrosinase mRNA under the following conditions: reaction at 95° C. for 10 min; and then about 45 cycles of 10 sec at 95° C. and 1 min at 60° C. […]
substance,measurement,value
"Example 2: miRIDIAN Hairpin Inhibitor, Human hsa-miR-125b (IH-300595-05-0005, Dharmacon); oligonucleotide with sequence complementary to miR-125b",expression level of tyrosinase mRNA (normalized to GAPDH),significantly increased
